{"source": "the supplement of paper PMC10307832", "test_in_all_cases": "relative viability (nuclei count vs DMSO), 5 days (fraction); higher = more cells survive", "key": {"VX-11e": {"compound": "CC1=CN=C(N=C1C2=CNC(=C2)C(=O)N[C@H](CO)C3=CC(=CC=C3)Cl)NC4=C(C=C(C=C4)F)Cl [VX-11e]", "how_it_was_run": "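Vehicle-anchored 1536-well plates of lung cancer cell lines, held overnight at 37 °C, were pinned with five library-drug doses (not always all listed) spaced by √10. No medium change followed over the next 5 days, after which the cells were fixed, permeabilised and Hoechst-stained together and imaged at 4×. Nuclei were counted with MetaXpress, and viability is treated-well nuclei over vehicle-well nuclei, taken as a median across plates. Plates passed with control CV below 25% and at least one doubling.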"}, "VX-11e + Bortezomib": {"compound": "CC1=CN=C(N=C1C2=CNC(=C2)C(=O)N[C@H](CO)C3=CC(=CC=C3)Cl)NC4=C(C=C(C=C4)F)Cl [VX-11e] + CC(C)C[C@H](NC(=O)[C@H](Cc1ccccc1)NC(=O)c1cnccn1)B(O)O [Bortezomib] (partner 0.002 µM)", "how_it_was_run": "(§1)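 For relative viability, nuclei counts in treated wells were divided by those in vehicle wells. Lung cancer cell lines had been pin-tool dosed in 1536-well plates the day after seeding and cultured for 5 days, then fixed and stained in one step (final 0.05% Triton X-100, 1% formaldehyde, 1 ug/ml Hoechst) and imaged at 4×. Doses were one drug alone or a fixed anchor-drug dose plus five library-drug doses (not always all listed) in √10 steps, and values are duplicate-plate medians.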"}, "VX-11e + Navitoclax": {"compound": "CC1=CN=C(N=C1C2=CNC(=C2)C(=O)N[C@H](CO)C3=CC(=CC=C3)Cl)NC4=C(C=C(C=C4)F)Cl [VX-11e] + CC1(C)CCC(c2ccc(Cl)cc2)=C(CN2CCN(c3ccc(C(=O)NS(=O)(=O)c4ccc(N[C@H](CCN5CCOCC5)CSc5ccccc5)c(S(=O)(=O)C(F)(F)F)c4)cc3)CC2)C1 [Navitoclax] (partner 0.5 µM)", "how_it_was_run": "as §1"}, "VX-11e + Foretinib": {"compound": "CC1=CN=C(N=C1C2=CNC(=C2)C(=O)N[C@H](CO)C3=CC(=CC=C3)Cl)NC4=C(C=C(C=C4)F)Cl [VX-11e] + COc1cc2c(Oc3ccc(NC(=O)C4(C(=O)Nc5ccc(F)cc5)CC4)cc3F)ccnc2cc1OCCCN1CCOCC1 [Foretinib] (partner 0.25 µM)", "how_it_was_run": "as §1"}, "VX-11e + Lapatinib": {"compound": "CC1=CN=C(N=C1C2=CNC(=C2)C(=O)N[C@H](CO)C3=CC(=CC=C3)Cl)NC4=C(C=C(C=C4)F)Cl [VX-11e] + CS(=O)(=O)CCNCc1ccc(-c2ccc3ncnc(Nc4ccc(OCc5cccc(F)c5)c(Cl)c4)c3c2)o1 [Lapatinib] (partner 2 µM)", "how_it_was_run": "as §1"}, "VX-11e + Pictilisib": {"compound": "CC1=CN=C(N=C1C2=CNC(=C2)C(=O)N[C@H](CO)C3=CC(=CC=C3)Cl)NC4=C(C=C(C=C4)F)Cl [VX-11e] + CS(=O)(=O)N1CCN(Cc2cc3nc(-c4cccc5[nH]ncc45)nc(N4CCOCC4)c3s2)CC1 [Pictilisib] (partner 1 µM)", "how_it_was_run": "as §1"}, "VX-11e + Crizotinib": {"compound": "CC1=CN=C(N=C1C2=CNC(=C2)C(=O)N[C@H](CO)C3=CC(=CC=C3)Cl)NC4=C(C=C(C=C4)F)Cl [VX-11e] + C[C@@H](Oc1cc(-c2cnn(C3CCNCC3)c2)cnc1N)c1c(Cl)ccc(F)c1Cl [Crizotinib] (partner 1 µM)", "how_it_was_run": "as §1"}, "VX-11e + Linsitinib": {"compound": "CC1=CN=C(N=C1C2=CNC(=C2)C(=O)N[C@H](CO)C3=CC(=CC=C3)Cl)NC4=C(C=C(C=C4)F)Cl [VX-11e] + C[C@]1(O)C[C@@H](c2nc(-c3ccc4ccc(-c5ccccc5)nc4c3)c3c(N)nccn32)C1 [Linsitinib] (partner 1 µM)", "how_it_was_run": "as §1"}, "VX-11e + Alpelisib": {"compound": "CC1=CN=C(N=C1C2=CNC(=C2)C(=O)N[C@H](CO)C3=CC(=CC=C3)Cl)NC4=C(C=C(C=C4)F)Cl [VX-11e] + Cc1nc(NC(=O)N2CCC[C@H]2C(N)=O)sc1-c1ccnc(C(C)(C)C(F)(F)F)c1 [Alpelisib] (partner 2 µM)", "how_it_was_run": "as §1"}, "VX-11e + AZD7762": {"compound": "CC1=CN=C(N=C1C2=CNC(=C2)C(=O)N[C@H](CO)C3=CC(=CC=C3)Cl)NC4=C(C=C(C=C4)F)Cl [VX-11e] + NC(=O)Nc1cc(-c2cccc(F)c2)sc1C(=O)N[C@H]1CCCNC1 [AZD7762] (partner 0.2 µM)", "how_it_was_run": "as §1"}, "VX-11e + Olaparib": {"compound": "CC1=CN=C(N=C1C2=CNC(=C2)C(=O)N[C@H](CO)C3=CC(=CC=C3)Cl)NC4=C(C=C(C=C4)F)Cl [VX-11e] + O=C(c1cc(Cc2n[nH]c(=O)c3ccccc23)ccc1F)N1CCN(C(=O)C2CC2)CC1 [Olaparib] (partner 8 µM)", "how_it_was_run": "as §1"}}}
{"cell line": "NCI-H1703", "values": [{"measurement": "relative viability", "setting": "VX-11e; 0.04 µM", "result": 0.828}, {"measurement": "relative viability", "setting": "VX-11e; 0.1265 µM", "result": 1.11}, {"measurement": "relative viability", "setting": "VX-11e; 0.4 µM", "result": 0.632}, {"measurement": "relative viability", "setting": "VX-11e; 1.265 µM", "result": 0.961}, {"measurement": "relative viability", "setting": "VX-11e; 4 µM", "result": 0.74}, {"measurement": "relative viability", "setting": "VX-11e + Bortezomib; first compound 0.04 µM", "result": 0.473}, {"measurement": "relative viability", "setting": "VX-11e + Bortezomib; first compound 0.1265 µM", "result": 0.414}, {"measurement": "relative viability", "setting": "VX-11e + Bortezomib; first compound 0.4 µM", "result": 0.258}, {"measurement": "relative viability", "setting": "VX-11e + Bortezomib; first compound 1.265 µM", "result": 0.35}, {"measurement": "relative viability", "setting": "VX-11e + Bortezomib; first compound 4 µM", "result": 0.21}, {"measurement": "relative viability", "setting": "VX-11e + Navitoclax; first compound 0.04 µM", "result": 1.12}, {"measurement": "relative viability", "setting": "VX-11e + Navitoclax; first compound 0.1265 µM", "result": 1.21}, {"measurement": "relative viability", "setting": "VX-11e + Navitoclax; first compound 0.4 µM", "result": 1.24}, {"measurement": "relative viability", "setting": "VX-11e + Navitoclax; first compound 1.265 µM", "result": 1.29}, {"measurement": "relative viability", "setting": "VX-11e + Navitoclax; first compound 4 µM", "result": 0.744}, {"measurement": "relative viability", "setting": "VX-11e + Foretinib; first compound 0.04 µM", "result": 0.383}, {"measurement": "relative viability", "setting": "VX-11e + Foretinib; first compound 0.1265 µM", "result": 0.33}, {"measurement": "relative viability", "setting": "VX-11e + Foretinib; first compound 1.265 µM", "result": 0.317}, {"measurement": "relative viability", "setting": "VX-11e + Foretinib; first compound 4 µM", "result": 0.28}, {"measurement": "relative viability", "setting": "VX-11e + Lapatinib; first compound 0.04 µM", "result": 1.49}, {"measurement": "relative viability", "setting": "VX-11e + Lapatinib; first compound 0.1265 µM", "result": 1.18}, {"measurement": "relative viability", "setting": "VX-11e + Lapatinib; first compound 1.265 µM", "result": 1.08}, {"measurement": "relative viability", "setting": "VX-11e + Lapatinib; first compound 4 µM", "result": 0.791}, {"measurement": "relative viability", "setting": "VX-11e + Pictilisib; first compound 0.1265 µM", "result": 0.257}, {"measurement": "relative viability", "setting": "VX-11e + Pictilisib; first compound 0.4 µM", "result": 0.234}, {"measurement": "relative viability", "setting": "VX-11e + Pictilisib; first compound 1.265 µM", "result": 0.268}, {"measurement": "relative viability", "setting": "VX-11e + Pictilisib; first compound 4 µM", "result": 0.258}, {"measurement": "relative viability", "setting": "VX-11e + Crizotinib; first compound 0.04 µM", "result": 0.985}, {"measurement": "relative viability", "setting": "VX-11e + Crizotinib; first compound 0.1265 µM", "result": 0.727}, {"measurement": "relative viability", "setting": "VX-11e + Crizotinib; first compound 1.265 µM", "result": 0.589}, {"measurement": "relative viability", "setting": "VX-11e + Crizotinib; first compound 4 µM", "result": 0.582}, {"measurement": "relative viability", "setting": "VX-11e + Linsitinib; first compound 0.04 µM", "result": 0.294}, {"measurement": "relative viability", "setting": "VX-11e + Linsitinib; first compound 0.1265 µM", "result": 0.655}, {"measurement": "relative viability", "setting": "VX-11e + Linsitinib; first compound 1.265 µM", "result": 0.748}, {"measurement": "relative viability", "setting": "VX-11e + Linsitinib; first compound 4 µM", "result": 0.502}, {"measurement": "relative viability", "setting": "VX-11e + Alpelisib; first compound 0.04 µM", "result": 0.303}, {"measurement": "relative viability", "setting": "VX-11e + Alpelisib; first compound 0.1265 µM", "result": 0.401}, {"measurement": "relative viability", "setting": "VX-11e + Alpelisib; first compound 0.4 µM", "result": 0.303}, {"measurement": "relative viability", "setting": "VX-11e + Alpelisib; first compound 1.265 µM", "result": 0.444}, {"measurement": "relative viability", "setting": "VX-11e + Alpelisib; first compound 4 µM", "result": 0.294}, {"measurement": "relative viability", "setting": "VX-11e + AZD7762; first compound 0.4 µM", "result": 0.141}, {"measurement": "relative viability", "setting": "VX-11e + AZD7762; first compound 1.265 µM", "result": 0.121}, {"measurement": "relative viability", "setting": "VX-11e + AZD7762; first compound 4 µM", "result": 0.122}, {"measurement": "relative viability", "setting": "VX-11e + Olaparib; first compound 0.04 µM", "result": 0.403}, {"measurement": "relative viability", "setting": "VX-11e + Olaparib; first compound 0.1265 µM", "result": 0.591}, {"measurement": "relative viability", "setting": "VX-11e + Olaparib; first compound 1.265 µM", "result": 0.393}, {"measurement": "relative viability", "setting": "VX-11e + Olaparib; first compound 4 µM", "result": 0.316}]}
